Assay results taken from patent US20260373193A1, “CARCINOGENESIS REDUCTION WITH PENTAAZA MACROCYLIC RING COMPLEX” (GALERA LABS, LLC, priority 2023, published 2026).
Entries after “also recorded” stand apart in the source; their conditions may differ.

Tests used:
female BALB/c mice = test: long-term survival of irradiated and unirradiated mice treated or not with GC4419; type: in vivo, mouse (female BALB/c)
Experimental: (§1) All animal studies conducted used female BALB/c mice irradiated at 77-91 days of age and housed for a lifetime study to determine rates of carcinogenesis and survival. Animals were purchased from Charles River Laboratory, shipped to Brookhaven National Laboratory, and irradiated with the doses and ion species described below.
(§2) Animals were treated or not with GC4419. Those animals treated with GC4419 followed the following strategy. GC4419 was delivered at a dose of 24 mg/kg (mice were weighed prior to drug delivery) interperitoneally (i.p.) at roughly 45-60 minutes prior to radiation exposure. GC4419 was then provided i.p. for the next 6 days, and the animals were shipped to UT Southwestern (UTSW) Medical Center for temporary quarantine before returning to the animal facility. Upon return to UTSW the animals were treated with GC4419 i.p. weekly for another 11 weeks for a total of 12 weeks on treatment.
(§3) Radiation exposures were whole body. The galactic cosmic ray (GCR) simulation exposures used the beam line at the NASA Space Radiation Laboratory at Brookhaven National Lab (BNL) and the γ-ray exposures used a ^137Cs source at BNL. Subsequent to single dose irradiation, animals were returned to their cages.
(§4) Galactic cosmic rays (GCR) are heavy ion radiation characteristic of the deep space environment, and the GCR simulation (GCRsim) at BNL mimics the complex radiation environment in space. The GCRsim ions used are described in Table 1 below.
FIGS. 1A-1D represent survival in cohorts where animals were exposed to single dose whole-body γ-rays or not irradiated (Control), and treated or not with GC4419. FIGS. 1A-1B present preliminary results through approximately 400-600 days post-irradiation depending on the cohort. FIGS. 1C-1D present final results. As expected, the survival curves show in the animals not treated with GC4419, trends to survival decreasing with increasing γ-ray dose from unirradiated Control to 0.75 Gy (FIGS. 1B & 1D) to 1.5 Gy (FIGS. 1A & 1C).
FIGS. 2A-2D represent survival in cohorts where animals were exposed to single dose whole-body GCRsim radiation or not irradiated (Control), and treated or not with GC4419. FIGS. 2A-2B present results, including preliminary data for unirradiated animals treated with GC4419 (Control+GC4419) cohort through approximately 400 days post-irradiation. FIGS. 2C-2D present final results for all the presented cohorts. As with γ-rays, the survival curves show in the animals not treated with GC4419, trends to survival decreasing with increasing GCRsim dose from unirradiated control to 0.4 Gy to 0.75 Gy. […] This may reflect that GCRsim is a combination of various radiations of varying carcinogenic potential curves.
FIGS. 3A-3C represent survival in cohorts where unirradiated animals (Control) were treated or not with GC4419. FIG. 3A presents results through approximately 400 days post-irradiation with the range of the y-axis covering 95-100% survival. FIG. 3B-3C present final results with the ranges of the y-axis covering 0-100% and 70-100% survival.

lung masses = test: incidence of lung masses at necropsy; type: in vivo, mouse (female BALB/c); conditions: for # Lung Masses / % Yield (percentage mice with lung masses): GC4419 24 mg/kg i.p.; for occurrence of lung masses vs untreated / incidence of lung tumors vs untreated: final results (FIG. 4)
Experimental: as §1, §2, §3, §4
(§5) Pathological endpoints were also considered. Specifically, lung cancer induction, or carcinogenesis, and other tumors that are evident in numbers large enough to consider as secondary endpoints. These endpoints are described in the following tables and figure. The term “masses” is used to describe an abnormal growth, evident by eye, within a given tissue; for example, the term “lung masses” is used to describe abnormal tissues found in the lung that are collected for pathologic examination.
(§6) Given prior experience with the mouse model of radiation-induced carcinogenesis, it is expected that most, if not all, of the lung masses are tumors. For the ovarian masses, some proportion of the masses are expected to be tumors. For observations of hepatosplenomegaly, many of the enlarged livers and spleens may not reflect tumors of those organs. These may, however, may be present as result of hematologic malignancies, such as leukemias, but that was not assessed in this experiment.
Table 2 presents the incidence of lung masses observed at necropsy by treatment cohort, including preliminary data for certain γ-ray cohorts through approximately 600 days post-irradiation and for unirradiated animals treated with GC4419 (Control+GC4419) cohort through approximately 400 days post-irradiation. FIG. 4 presents final results for incidence of lung masses. […] In other words, in part GC4419 could have delayed carcinogenesis.

[1] = system: ovarian masses or hemorrhagic cysts; test: incidence of ovarian masses or hemorrhagic cysts at necropsy; type: in vivo, mouse (female BALB/c); conditions: for # Ovary Masses/Cysts / % Yield (percentage of mice with ovarian masses or hemorrhagic cysts): GC4419 24 mg/kg i.p.; for occurrence of ovarian masses and hemorrhagic cysts vs untreated: final results (FIG. 4)
Experimental: as §1, §2, §3, §4, §5, §6
Table 3 presents the incidence of ovarian masses and hemorrhagic cysts observed at necropsy by treatment cohort, including preliminary data for certain γ-ray cohorts through approximately 600 days post-irradiation and for unirradiated animals treated with GC4419 (Control+GC4419) cohort through approximately 400 days post-irradiation. FIG. 4 presents final results for incidence of ovarian masses and hemorrhagic cysts.

[2] = system: VEGFr inhibitor-induced pulmonary disease; conditions: rat; cited from earlier work
[3] = system: kidney damage from cisplatin; conditions: cisplatin therapy for cancer; cited from earlier work
[4] = system: Non-Small Cell Lung Carcinoma Cell Lines; conditions: NSCLC cell lines; with cisplatin or cisplatin plus radiation; cited from earlier work
[5] = system: acute and sub-chronic radiation damage; platinum therapy kidney damage; conditions: mucositis, pulmonary pneumonitis and fibrosis, liver damage; cited from earlier work
established tumors = conditions: cited from earlier work
[6] = unirradiated (0 Gy), 235 mice, preliminary, approx. 400 days
[7] = unirradiated (0 Gy), 235 mice, preliminary, approx. 400 days, untreated pair 10.6
[8] = γ-ray 0.75 Gy, 248 mice, preliminary for certain γ-ray cohorts (approx. 600 days)
[9] = γ-ray 1.5 Gy, 248 mice, preliminary for certain γ-ray cohorts (approx. 600 days)

Question: With `[Cl][Mn][Cl].c1cc2nc(c1)CN[C@H]1CCCC[C@@H]1NCCN[C@H]1CCCC[C@@H]1NC2` [GC4419] as the molecule, how does the “survival vs irradiated untreated” value (female BALB/c mice; GCRsim 0.4 Gy, 24 mg/kg i.p., final results) read?
Answer: neither increases nor decreases survival

Question: What about the “survival vs irradiated untreated” value (female BALB/c mice; GCRsim 0.75 Gy, 24 mg/kg i.p., final results, p<0.05) of the same molecule?
Answer: statistically significantly increased survival

Question: What about the “survival vs unirradiated untreated” value (female BALB/c mice; unirradiated (Control), 24 mg/kg i.p., final results, p<0.01 (FIGS. 3A-3C), 24 mg/kg) of the same molecule?
Answer: statistically significantly increased survival; also recorded: appears to increase survival in unirradiated animals

Question: And the “survival, overall” value (female BALB/c mice; variety of radiation types and doses)?
Answer: appears to have an effect on survival in animals exposed to a variety of radiation types and doses

Question: And the “survival vs unirradiated animals not treated with GC4419” value (female BALB/c mice; γ-ray 0.75 Gy, 24 mg/kg i.p., final results)?
Answer: equivalent survival to unirradiated animals not treated with GC4419

Question: What about the “survival vs irradiated untreated” value (female BALB/c mice; γ-ray 0.75 Gy, 24 mg/kg i.p., final results, p<0.01 (FIG. 1D)) of the same molecule?
Answer: statistically significantly increased survival

Question: What about the “survival vs irradiated untreated” value (female BALB/c mice; γ-ray 1.5 Gy, 24 mg/kg i.p., final results, p<0.05 (FIG. 1C)) of the same molecule?
Answer: statistically significantly increased survival

Question: What about the “# Lung Masses” value (lung masses; GCRsim 0.4 Gy, 224 mice) of the same molecule?
Answer: 24

Question: And the “% Yield (percentage mice with lung masses)” value (lung masses; GCRsim 0.4 Gy, 224 mice, untreated pair 10.0)?
Answer: 10.7%

Question: What about the “# Lung Masses” value (lung masses; GCRsim 0.75 Gy, 248 mice) of the same molecule?
Answer: 27

Question: What about the “% Yield (percentage mice with lung masses)” value (lung masses; GCRsim 0.75 Gy, 248 mice, untreated pair 21.0) of the same molecule?
Answer: 10.9%

Question: And the “occurrence of lung masses vs untreated” value (lung masses; GCRsim 0.75 Gy, p<0.01)?
Answer: markedly and statistically significantly decreased occurrence of lung masses

Question: And the “# Lung Masses” value (lung masses; [6])?
Answer: 1

Question: And the “% Yield (percentage mice with lung masses)” value (lung masses; [7])?
Answer: 0.4%

Question: What about the “incidence of lung tumors vs untreated” value (lung masses; unirradiated (Control)) of the same molecule?
Answer: absence of a clear difference

Question: And the “# Lung Masses” value (lung masses; [8])?
Answer: 15

Question: And the “% Yield (percentage mice with lung masses)” value (lung masses; γ-ray 0.75 Gy, 248 mice, preliminary for certain γ-ray cohorts (approx. 600 days), untreated pair 14.7)?
Answer: 6.0%

Question: What about the “occurrence of lung masses vs untreated” value (lung masses; γ-ray 0.75 Gy, p<0.05) of the same molecule?
Answer: markedly and statistically significantly decreased occurrence of lung masses

Question: What about the “# Lung Masses” value (lung masses; [9]) of the same molecule?
Answer: 16

Question: And the “% Yield (percentage mice with lung masses)” value (lung masses; γ-ray 1.5 Gy, 248 mice, preliminary for certain γ-ray cohorts (approx. 600 days), untreated pair 11.9)?
Answer: 6.5%

Question: And the “incidence of lung tumors vs untreated” value (lung masses; γ-ray 1.5 Gy)?
Answer: absence of a clear difference

Question: What about the “# Ovary Masses/Cysts” value ([1]; GCRsim 0.4 Gy, 224 mice) of the same molecule?
Answer: 26

Question: What about the “% Yield (percentage of mice with ovarian masses or hemorrhagic cysts)” value ([1]; GCRsim 0.4 Gy, 224 mice, untreated pair 12.5) of the same molecule?
Answer: 11.6%

Question: And the “# Ovary Masses/Cysts” value ([1]; GCRsim 0.75 Gy, 248 mice)?
Answer: 43

Question: And the “% Yield (percentage of mice with ovarian masses or hemorrhagic cysts)” value ([1]; GCRsim 0.75 Gy, 248 mice, untreated pair 24.2)?
Answer: 17.3%

Question: And the “occurrence of ovarian masses and hemorrhagic cysts vs untreated” value ([1]; GCRsim 0.75 Gy)?
Answer: markedly decreased occurrence of ovarian masses and hemorrhagic cysts

Question: And the “# Ovary Masses/Cysts” value [1, 6]?
Answer: 0

Question: What about the “% Yield (percentage of mice with ovarian masses or hemorrhagic cysts)” value [1, 7] of the same molecule?
Answer: 0.0%

Question: What about the “occurrence of ovarian masses and hemorrhagic cysts vs untreated” value ([1]; unirradiated) of the same molecule?
Answer: markedly decreased occurrence of ovarian masses and hemorrhagic cysts

Question: What about the “# Ovary Masses/Cysts” value [1, 8] of the same molecule?
Answer: 22

Question: What about the “% Yield (percentage of mice with ovarian masses or hemorrhagic cysts)” value ([1]; γ-ray 0.75 Gy, 248 mice, preliminary for certain γ-ray cohorts (approx. 600 days), untreated pair 28.9) of the same molecule?
Answer: 8.8%

Question: And the “occurrence of ovarian masses and hemorrhagic cysts vs untreated” value ([1]; γ-ray 0.75 Gy, statistically significant, p<0.05)?
Answer: markedly decreased occurrence of ovarian masses and hemorrhagic cysts

Question: What about the “# Ovary Masses/Cysts” value [1, 9] of the same molecule?
Answer: 24

Question: What about the “% Yield (percentage of mice with ovarian masses or hemorrhagic cysts)” value ([1]; γ-ray 1.5 Gy, 248 mice, preliminary for certain γ-ray cohorts (approx. 600 days), untreated pair 21.7) of the same molecule?
Answer: 9.6%

Question: And the pulmonary disease [2]?
Answer: attenuate VEGFr inhibitor-induced pulmonary disease

Question: And the “kidney damage from cisplatin” value [3]?
Answer: reduce kidney damage from cisplatin therapy

Question: What about the “response to cisplatin and cisplatin plus radiation” value [4] of the same molecule?
Answer: Enhances the Response of Non-Small Cell Lung Carcinoma Cell Lines to Cisplatin and Cisplatin Plus Radiation

Question: And the “overt acute and sub-chronic radiation damage; platinum therapy kidney damage” value [5]?
Answer: reduce overt acute and sub-chronic radiation damage

Question: And the “efficacy of radiation and other therapies” value (established tumors)?
Answer: enhance the efficacy of radiation and other therapies
